Measured values published in patent publication US20160002247A1, “8-SUBSTITUTED IMIDAZOPYRIMIDINONE DERIVATIVE HAVING AUTOTAXIN INHIBITORY ACTIVITY” (THE UNIVERSITY OF TOKYO, priority 2013, published 2016).
pIC50: −log10 of the molar value.

Target: T1, Human autotaxin enzyme (Homo sapiens, UniProt Q13822)
T1 construct: purchased R&D System
Test: Evaluation of autotaxin inhibitor, Method C (Test Example 3): 18:0 Lyso PC, choline assay, Resorufin fluorescence
Type: biochemical
Conditions: Assay Method C, human autotaxin, 18:0 Lyso PC substrate; read-out: Inhibitory Activity
Summary of the method: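 Choline-coupled fluorescence readout (20 min, resorufin at 531/598 nm) followed a 2 h room-temperature reaction of human autotaxin with 18:0 Lyso PC substrate (added as 200 μM solution) in pH 7.5 Tris buffer containing MgCl2 and Triton X-100. Percent inhibition scaled to no-compound (0%) and no-enzyme (100%) wells and plotted versus concentration.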

| Compound | pIC50 |
| --- | --- |
| Cn1c(N2CCC[C@H]2C(=O)NC(C)(C)C(=O)O)cc(=O)n2cc(-c3ccc(Cl)cc3)nc12 [Compound 780] | 6.00 to 7.00 |
| Cn1c(N2C[C@H](O)C[C@H]2C(=O)NC(C)(C)C(=O)O)cc(=O)n2cc(-c3ccc(Cl)cc3)nc12 [Compound 781] | < 6.00 |
| C[C@H](NC(=O)[C@@H]1C[C@@H](O)CN1c1cc(=O)n2cc(-c3ccc(Cl)cc3)nc2n1C)C(=O)O [Compound 782] | 6.00 to 7.00 |
| CCCCCn1c(N2CCC[C@H]2C(=O)Nc2nn[nH]n2)cc(=O)n2cc(-c3ccc(Cl)cc3)nc12 [Compound 783] | 7.00 to 8.00 |
| CCCCCn1c(N2CCC[C@H]2C(=O)Nc2ccc(-c3nn[nH]n3)cc2)cc(=O)n2cc(-c3ccc(Cl)cc3)nc12 [Compound 784] | 6.00 to 7.00 |
| CCCCCn1c(N2CCC[C@H]2C(=O)NCC(O)C(F)(F)F)cc(=O)n2cc(-c3ccc(Cl)cc3)nc12 (some centres unmarked) [Compound 785] | 6.00 to 7.00 |
| CCCCCn1c(N2CCC[C@H]2C(=O)NCC(O)CC(F)(F)F)cc(=O)n2cc(-c3ccc(Cl)cc3)nc12 (some centres unmarked) [Compound 786] | 6.00 to 7.00 |
| CCCCCn1c(N2CCC[C@H]2C(=O)Nc2cccc(-c3nn[nH]n3)c2)cc(=O)n2cc(-c3ccc(Cl)cc3)nc12 [Compound 787] | 6.00 to 7.00 |
| CCCCCn1c(N2CCC[C@H]2C(=O)Nc2cc(O)[nH]n2)cc(=O)n2cc(-c3ccc(Cl)cc3)nc12 [Compound 788] | < 6.00 |
| CCCCCn1c(N2CCC[C@H]2C(=O)NC(C(N)=O)c2ccccc2)cc(=O)n2cc(-c3ccc(Cl)cc3)nc12 (some centres unmarked) [Compound 789] | 7.00 to 8.00 |
| CCCCCn1c(N2CCC[C@H]2C(=O)NCc2c[nH]nn2)cc(=O)n2cc(-c3ccc(Cl)cc3)nc12 [Compound 790] | > 8.00 |
| CCCCCn1c(N2CCC[C@H]2C(=O)Nc2ccccc2-c2nn[nH]n2)cc(=O)n2cc(-c3ccc(Cl)cc3)nc12 [Compound 791] | 6.00 to 7.00 |
| CCCCCn1c(N2CCC[C@H]2C(=O)NC[C@H](O)C(F)(F)F)cc(=O)n2cc(-c3ccc(Cl)cc3)nc12 [Compound 792] | 6.00 to 7.00 |
| CCCCCn1c(N2CCC[C@H]2C(=O)Nc2ccc(O)c(OC)c2)cc(=O)n2cc(-c3ccc(Cl)cc3)nc12 [Compound 793] | 6.00 to 7.00 |
| CCCCCn1c(N2CCC[C@H]2C(=O)Nc2nonc2OC)cc(=O)n2cc(-c3ccc(Cl)cc3)nc12 [Compound 794] | 7.00 to 8.00 |
| CCCCCn1c(N2CCC[C@H]2C(=O)NCc2nn[nH]n2)cc(=O)n2cc(-c3ccc(Cl)cc3)nc12 [Compound 795] | > 8.00 |
| CCCCCn1c(N2CCC[C@H]2C(=O)Nc2ccc(Oc3nn[nH]n3)cc2)cc(=O)n2cc(-c3ccc(Cl)cc3)nc12 [Compound 796] | 6.00 to 7.00 |
| CCCCCn1c(N2CCC[C@H]2C(=O)N[C@@H](CC(C)C)C(N)=O)cc(=O)n2cc(-c3ccc(Cl)cc3)nc12 [Compound 797] | 7.00 to 8.00 |
| CCCCCn1c(N2CCC[C@H]2C(=O)Nc2ccc(OC)c(O)c2)cc(=O)n2cc(-c3ccc(Cl)cc3)nc12 [Compound 798] | 6.00 to 7.00 |
| CCCCCn1c(N2CCC[C@H]2C(=O)Nc2cc(O)no2)cc(=O)n2cc(-c3ccc(Cl)cc3)nc12 [Compound 799] | 7.00 to 8.00 |
| CCCCCn1c(N2CCC[C@H]2C(=O)NC(C)C(O)C(F)(F)F)cc(=O)n2cc(-c3ccc(Cl)cc3)nc12 (some centres unmarked) [Compound 800] | 7.00 to 8.00 |
| CCCCCn1c(N2CCC[C@H]2C(=O)Oc2cc(N)ccc2OC)cc(=O)n2cc(-c3ccc(Cl)cc3)nc12 [Compound 801] | 6.00 to 7.00 |
| CCCCCn1c(N2CCCCC2CC)cc(=O)n2cc(-c3ccc(Cl)cc3)nc12 (centres unmarked) [Compound 802] | < 6.00 |
| CCCCCn1c(N2CCCCC2c2ccccc2)cc(=O)n2cc(-c3ccc(Cl)cc3)nc12 (centres unmarked) [Compound 803] | < 6.00 |

| Compound | pIC50 |
| --- | --- |
| CCCCCn1c(N2CCCC(C)(C)C2)cc(=O)n2cc(-c3ccc(Cl)cc3)nc12 [Compound 804] | < 6.00 |
| CCCCCn1c(N2CCCCC2CCN2CCOCC2)cc(=O)n2cc(-c3ccc(Cl)cc3)nc12 (centres unmarked) [Compound 805] | 6.00 to 7.00 |
| CCCCCn1c(N2CCCCC2CNC(=O)OC(C)(C)C)cc(=O)n2cc(-c3ccc(Cl)cc3)nc12 (centres unmarked) [Compound 806] | < 6.00 |
| C#CCNC(=O)C1CCCCN1c1cc(=O)n2cc(-c3ccc(Cl)cc3)nc2n1CCCCC (centres unmarked) [Compound 807] | 7.00 to 8.00 |
| CCCCCn1c(N2CCCC[C@@H]2C)cc(=O)n2cc(-c3ccc(Cl)cc3)nc12 [Compound 808] | < 6.00 |
| CCCCCn1c(N2CCCC(C(=O)O)C2C)cc(=O)n2cc(-c3ccc(Cl)cc3)nc12 (centres unmarked) [Compound 809] | 6.00 to 7.00 |
| CCCCCn1c(N2CC3CC3C2)cc(=O)n2cc(-c3ccc(Cl)cc3)nc12 (centres unmarked) [Compound 810] | 6.00 to 7.00 |
| CCCCCn1c(N2CCC[C@@H](C)C2)cc(=O)n2cc(-c3ccc(Cl)cc3)nc12 [Compound 811] | < 6.00 |
| CCCCCn1c(N2CCC[C@H](C)C2)cc(=O)n2cc(-c3ccc(Cl)cc3)nc12 [Compound 812] | 6.00 to 7.00 |
| CCCCCn1c(N2CCC[C@@H](c3ccccc3)C2)cc(=O)n2cc(-c3ccc(Cl)cc3)nc12 [Compound 813] | < 6.00 |
| CCCCCn1c(N2CCCC[C@H]2C)cc(=O)n2cc(-c3ccc(Cl)cc3)nc12 [Compound 814] | 6.00 to 7.00 |
| CCCCCn1c(N2CCC[C@H]2C(=O)NC(C(=O)O)C(F)(F)F)cc(=O)n2cc(-c3ccc(Cl)cc3)nc12 (some centres unmarked) [Compound 815] | > 8.00 |
| CCCCCn1c(N2CCC[C@H]2C(=O)NCC(=O)OC)cc(=O)n2cc(-c3ccc(Cl)cc3)nc12 [Compound 816] | 7.00 to 8.00 |
| CCCCCn1c(-c2ccc(C(=O)NCCNCCO)cc2)cc(=O)n2cc(-c3ccc(Cl)cc3)nc12 [Compound 817] | > 8.00 |
| Cn1cc(Cc2cccc(C(=O)O)c2)c(=O)n2cc(-c3ccc(Cl)cc3)nc12 [Compound 819] | 6.00 to 7.00 |
| CCCCCn1cc(Cc2cccc(C(=O)O)c2)c(=O)n2cc(-c3ccc(Cl)cc3)nc12 [Compound 820] | 7.00 to 8.00 |
| CCOC(=O)c1cccc(Cc2cn(CCCCC#N)c3nc(-c4ccc(Cl)cc4)cn3c2=O)c1 [Compound 821] | 6.00 to 7.00 |
| CCOC(=O)c1cccc(Cc2cn(CC3CC3)c3nc(-c4ccc(Cl)cc4)cn3c2=O)c1 [Compound 822] | < 6.00 |
| O=C(O)c1cccc(Cc2cn(CC3CC3)c3nc(-c4ccc(Cl)cc4)cn3c2=O)c1 [Compound 823] | 7.00 to 8.00 |
| N#CCCCCn1cc(Cc2cccc(C(=O)O)c2)c(=O)n2cc(-c3ccc(Cl)cc3)nc12 [Compound 824] | > 8.00 |
| CCCCC(C(C)=O)n1cc(Cc2cccc(C(=O)O)c2)c(=O)n2cc(-c3ccc(Cl)cc3)nc12 (centres unmarked) [Compound 825] | < 6.00 |
| O=C(O)c1cccc(Cc2cn(CCCC(F)(F)F)c3nc(-c4ccc(Cl)cc4)cn3c2=O)c1 [Compound 826] | 7.00 to 8.00 |
| O=C(O)Cc1cn(CCCC(F)(F)F)c2nc(-c3ccc(Cl)cc3)cn2c1=O [Compound 827] | < 6.00 |
| CCOC(=O)Cc1cn(CCCC(F)(F)F)c2nc(-c3ccc(Cl)cc3)cn2c1=O [Compound 828] | < 6.00 |

| Compound | pIC50 |
| --- | --- |
| N#CCNC(=O)Cc1cn(CCCC(F)(F)F)c2nc(-c3ccc(Cl)cc3)cn2c1=O [Compound 829] | 6.00 to 7.00 |
| N#CCCNC(=O)Cc1cn(CCCC(F)(F)F)c2nc(-c3ccc(Cl)cc3)cn2c1=O [Compound 830] | 6.00 to 7.00 |
| CN(CCC#N)C(=O)Cc1cn(CCCC(F)(F)F)c2nc(-c3ccc(Cl)cc3)cn2c1=O [Compound 831] | 6.00 to 7.00 |
| N#CCCCNC(=O)Cc1cn(CCCC(F)(F)F)c2nc(-c3ccc(Cl)cc3)cn2c1=O [Compound 832] | < 6.00 |
| O=C(Cc1cn(CCCC(F)(F)F)c2nc(-c3ccc(Cl)cc3)cn2c1=O)N(CCO)CCO [Compound 833] | < 6.00 |
| CN(CC#N)C(=O)Cc1cn(CCCC(F)(F)F)c2nc(-c3ccc(Cl)cc3)cn2c1=O [Compound 834] | 6.00 to 7.00 |
| N#CNC(=O)Cc1cn(CCCC(F)(F)F)c2nc(-c3ccc(Cl)cc3)cn2c1=O [Compound 835] | < 6.00 |
| CC1CCCCN1C(=O)Cc1cn(CCCC(F)(F)F)c2nc(-c3ccc(Cl)cc3)cn2c1=O (centres unmarked) [Compound 836] | 7.00 to 8.00 |
| NC(=O)C1CCN(C(=O)Cc2cn(CCCC(F)(F)F)c3nc(-c4ccc(Cl)cc4)cn3c2=O)CC1 [Compound 837] | < 6.00 |
| O=C(Cc1cn(CCCC(F)(F)F)c2nc(-c3ccc(Cl)cc3)cn2c1=O)N1CCC(O)CC1 [Compound 838] | < 6.00 |
| N#CCN(CC#N)C(=O)Cc1cn(CCCC(F)(F)F)c2nc(-c3ccc(Cl)cc3)cn2c1=O [Compound 839] | 6.00 to 7.00 |
| CC(C)(C)OC(=O)NCCNC(=O)Cc1cn(CCCC(F)(F)F)c2nc(-c3ccc(Cl)cc3)cn2c1=O [Compound 840] | 6.00 to 7.00 |
| NC(=O)CNC(=O)Cc1cn(CCCC(F)(F)F)c2nc(-c3ccc(Cl)cc3)cn2c1=O [Compound 841] | < 6.00 |
| O=C(Cc1cn(CCCC(F)(F)F)c2nc(-c3ccc(Cl)cc3)cn2c1=O)NCc1cc(=O)[nH]o1 [Compound 842] | 6.00 to 7.00 |
| O=C(Cc1cn(CCCC(F)(F)F)c2nc(-c3ccc(Cl)cc3)cn2c1=O)NCCO [Compound 843] | < 6.00 |
| O=C(Cc1cn(CCCC(F)(F)F)c2nc(-c3ccc(Cl)cc3)cn2c1=O)NCC(O)CO (centres unmarked) [Compound 844] | < 6.00 |
| CONC(=O)Cc1cn(CCCC(F)(F)F)c2nc(-c3ccc(Cl)cc3)cn2c1=O [Compound 845] | 6.00 to 7.00 |
| O=C(Cc1cn(CCCC(F)(F)F)c2nc(-c3ccc(Cl)cc3)cn2c1=O)NC1COC1 [Compound 846] | < 6.00 |
| O=C1CN(C(=O)Cc2cn(CCCC(F)(F)F)c3nc(-c4ccc(Cl)cc4)cn3c2=O)CCN1 [Compound 847] | < 6.00 |
| O=C(Cc1cn(CCCC(F)(F)F)c2nc(-c3ccc(Cl)cc3)cn2c1=O)N[C@@H](CO)Cc1ccccc1 [Compound 848] | < 6.00 |
| CS(=O)(=O)CCNC(=O)Cc1cn(CCCC(F)(F)F)c2nc(-c3ccc(Cl)cc3)cn2c1=O [Compound 849] | < 6.00 |
| C[C@@H]1COC[C@H](C)N1C(=O)Cc1cn(CCCC(F)(F)F)c2nc(-c3ccc(Cl)cc3)cn2c1=O [Compound 850] | 6.00 to 7.00 |
| CNC(=O)Cc1cn(CCCC(F)(F)F)c2nc(-c3ccc(Cl)cc3)cn2c1=O [Compound 851] | 6.00 to 7.00 |
